Test results as given in patent publication US20090221624A1, “4-AMINOQUINOLINE COMPOUNDS FOR TREATING VIRUS-RELATED CONDITIONS” (priority 2005, published 2009).

Experiments:
[1] = test system: YFV (YF-hRuPac cells); experiment: microbe, parasite or virus in culture; type: cell-based, yellow fever virus; details: for inhibition at 25 µM / EC50: Yellow fever virus; for inhibition at 25 µM: 24 h, read-out: YFV Inh; for EC50: read-out: YFV EC50
[2] = test system: HCV replicon (Clone A cells, Huh7, subgenomic hepatits C virus RNA); experiment: HCV Neo screening assay (HCV replicon, NPTII ELISA); type: cell-based, hepatitis C virus; details: for inhibition at 25 µM / EC50: Hepatitis C virus, Huh-7; for inhibition at 25 µM: primary screening, 25 μM final concentration, 24 hours, percent inhibition of viral replication, read-out: HCV Inh; for EC50: Secondary Data, HCV; for HCV TI: therapeutic index CC50/EC50, HCV
[3] = test system: SINV (SR19-F-luc cells); experiment: SINV antiviral activity, SR19-F-luc cells, Firefly luciferase; type: cell-based; details: Sindbis virus; for inhibition at 25 µM: primary screening, 25 μM final concentration, 24 hours, percent inhibition of viral replication, read-out: SINV Inh; for EC50: secondary screening, SR19-F-luc cells
[4] = test system: WNV (WN-hRuPac cells); experiment: WNV antiviral activity, WN-hRuPac cells, Renilla luciferase; type: cell-based, West Nile virus; details: for EC50 / inhibition at 25 µM: West Nile virus; for EC50: Secondary Data, WNV, read-out: WNV EC50; for inhibition at 25 µM: primary screening, 25 μM final concentration, 24 hours, percent inhibition of viral replication, read-out: WNV Inh; for WNV TI: therapeutic index CC50/EC50, WNV
[5] = test system: EBOV minigenome; experiment: microbe, parasite or virus in culture; type: cell-based, Ebola virus; details: Zaire ebolavirus; for inhibition at 25 µM: 24 h, read-out: EBOV Inh; for EC50: read-out: EBOV EC50
[6] = in vitro
[7] = test system: DNG (D2-hRuPac cells); experiment: DNG antiviral activity, D2-hRuPac cells, Renilla luciferase; type: cell-based, Dengue fever virus; details: Dengue virus, secondary screening
[8] = test system: RSV minigenome; experiment: RSV minigenome-dependent β-galactosidase expression assay (RSV β-Gal); type: cell-based, respiratory syncytial virus; details: for EC50 / inhibition at 25 µM: human respiratory syncytial virus; for EC50: Secondary Data, RSV, read-out: RSV EC50; for inhibition at 25 µM: primary screening, 25 μM final concentration, 24 hours, percent inhibition of viral replication, read-out: RSV Inh; for RSV TI: therapeutic index CC50/EC50, RSV

| SMILES | YFV TI [1] | inhibition at 25 µM [1] [%] | EC50 [1] [µM] | inhibition at 25 µM [2] [%] | inhibition at 25 µM [3] [%] | EC50 [3] [µM] | EC50 [4] [µM] | inhibition at 25 µM [4] [%] | WNV TI [4] | inhibition at 25 µM [5] [%] | EC50 [5] [µM] | CC50 ([6]; DNG CC50) [µM] | CC50 ([6]; EBOV CC50) [µM] | CC50 ([6]; RSV CC50) [µM] | CC50 ([6]; SINV CC50) [µM] | CC50 ([6]; WNV CC50) [µM] | CC50 ([6]; YFV CC50) [µM] | EC50 [7] [µM] | EC50 [8] [µM] | inhibition at 25 µM [8] [%] | further results |
| --- | --- | --- | --- | --- | --- | --- | --- | --- | --- | --- | --- | --- | --- | --- | --- | --- | --- | --- | --- | --- | --- |
| CCOC(=O)c1cnc2c(C)cccc2c1NCc1ccco1 [Compound 46] | 13.87 | 97.7 | 3.54 | 15 | -16.9 | 49.7 | 2.96 | 103 | 16.59 | 90 | 7.92 | 49.1 | 49.1 | 49.1 | 49.1 | 49.1 | 49.1 | 10.2 | 1.31 | 94.7 | RSV TI [8]: 37.48 |
| Cc1cc(Nc2ccc(C)c(C)c2)c2cc(Cl)ccc2n1 [Compound 47] | 2.86 | 77.7 | 19.6 | 149 | 61.4 | 7.23 | 8.66 | 73 | 6.47 | 49.5 | 75 | 56 | 56 | 56 | 56 | 56 | 56 | 39.4 | 3.96 | 96.4 | EC50 [2]: 11 µM; HCV TI [2]: 0.71; CC50 ([6]; HCV CC50): 7.84 µM; RSV TI [8]: 14.14 |
| CC(=O)c1cccc(Nc2cc(C)nc3c(C)cc(C)cc23)c1 [Compound 48] | 1.61 | 62.1 | 15.9 | 151 | 70.3 | 2.47 | 21.3 | 58.5 | 1.2 | 29.4 | 26.4 | 25.6 | 25.6 | 25.6 | 25.6 | 25.6 | 25.6 | 10.5 | 8.32 | 78 | EC50 [2]: 10 µM; HCV TI [2]: 1.41; CC50 ([6]; HCV CC50): 14.1 µM; RSV TI [8]: 3.08 |
| Cc1cc(C)c2nc(C)cc(Nc3ccc(O)cc3)c2c1 [Compound 49] | 3.57 | 66.5 | 11 | 113 | 72.5 | ≥ 75 | 5.58 | 66.4 | 7.04 | 69.9 | 6.88 | 39.3 | 39.3 | 39.3 | 39.3 | 39.3 | 39.3 | 13.2 | 4.39 | 90.2 | EC50 [2]: 11.1 µM; HCV TI [2]: 1.47; CC50 ([6]; HCV CC50): 16.3 µM; RSV TI [8]: 8.94 |
| CCOC(=O)c1ccc2nc(C)cc(Nc3ccc(C)cc3C)c2c1 [Compound 51] | 3.62 | 41.8 | 15.5 | 55.5 | 51.9 | 13.7 | 16 | 49 | 3.5 | 33.7 | 52.6 | 56.1 | 56.1 | 56.1 | 56.1 | 56.1 | 56.1 | 61 | 3.72 | 75.5 | EC50 [2]: 11.3 µM; HCV TI [2]: 1.89; CC50 ([6]; HCV CC50): 21.4 µM; RSV TI [8]: 15.07 |
| CCOC(=O)c1cnc2c(Cl)cc(Cl)cc2c1NCc1ccco1 [Compound 52] | 8.84 | 90 | 4.99 | 76.5 | 10.2 | 24.8 | 10.8 | 88.9 | 4.08 | 76.9 | 13.2 | 44.1 | 44.1 | 44.1 | 44.1 | 44.1 | 44.1 | 15.8 | 2.51 | 99.1 | EC50 [2]: 12.5 µM; HCV TI [2]: 5.62; CC50 ([6]; HCV CC50): 70.2 µM; RSV TI [8]: 17.57 |
| Cc1cc(C)c2nc(C)cc(Nc3ccc(Cl)c(Cl)c3)c2c1 [Compound 53] | 7.6 | 79.9 | 6.47 | 150 | 88.1 | 6.69 | 20.9 | 91.9 | 2.35 | 75.6 | 75 | 49.1 | 49.1 | 49.1 | 49.1 | 49.1 | 49.1 | 28.7 | 3.78 | 100 | EC50 [2]: 4.78 µM; HCV TI [2]: 1.74; CC50 ([6]; HCV CC50): 8.3 µM; RSV TI [8]: 13 |
| Cc1cc(C)c2nc(C)cc(NCc3ccco3)c2c1 [Compound 54] | 12.13 | 91.1 | 4.14 | 101 | 47.8 | 38.3 | 6.91 | 84.4 | 7.26 | 38.4 | 75 | 50.2 | 50.2 | 50.2 | 50.2 | 50.2 | 50.2 | 21.9 | 5.8 | 87.9 | EC50 [2]: 26 µM; HCV TI [2]: 0.92; CC50 ([6]; HCV CC50): 23.9 µM; RSV TI [8]: 8.66 |
| CCOC(=O)c1cnc2c(Cl)cccc2c1NCc1ccco1 [Compound 55] | 7.96 | 94.3 | 6.07 | 21.9 | 29.1 | ≥ 75 | 13 | 94.9 | 3.72 | 72.8 | 10.4 | 48.3 | 48.3 | 48.3 | 48.3 | 48.3 | 48.3 | 8.53 | 5.46 | 81.5 | CC50 ([6]; HCV CC50): ≥ 75 µM; RSV TI [8]: 8.85 |
| CCOc1ccc2nc(C)cc(Nc3ccc(OC)c(OC)c3)c2c1 [Compound 56] | 7.93 | 98.7 | 3.51 | 128 | 95.8 | 2.33 | 3.5 | 95.7 | 7.95 | 89.3 | 47.5 | 27.8 | 27.8 | 27.8 | 27.8 | 27.8 | 27.8 | 8.48 | 3.33 | 99 | EC50 [2]: 4.56 µM; HCV TI [2]: 1.47; CC50 ([6]; HCV CC50): 6.69 µM; RSV TI [8]: 8.36 |
| CCOc1ccc2nc(C)cc(Nc3ccc(N(C)C)cc3)c2c1 [Compound 57] | 11.24 | 95.8 | 2.76 | 136 | 87.7 | 3.97 | 3.6 | 85.7 | 8.62 | 70.8 | 75 | 31 | 31 | 31 | 31 | 31 | 31 | 6.28 | 4.56 | 97.9 | EC50 [2]: 4.98 µM; HCV TI [2]: 0.85; CC50 ([6]; HCV CC50): 4.23 µM; RSV TI [8]: 6.8 |
| CCOc1ccc2nc(C)cc(Nc3cc(Cl)ccc3OC)c2c1 [Compound 58] | 7.04 | 96.6 | 2.65 | 137 | 92.8 | 4.2 | 3.8 | 91.5 | 4.91 | 80.2 | 4.94 | 18.7 | 18.7 | 18.7 | 18.7 | 18.7 | 18.7 | 6.91 | 2.34 | 99.8 | EC50 [2]: 4.95 µM; HCV TI [2]: 2.38; CC50 ([6]; HCV CC50): 11.8 µM; RSV TI [8]: 7.98 |
